# Experimental data taken from patent publication US9593113B2, “Imide and acylurea derivatives as modulators of the glucocorticoid receptor” (BRISTOL-MYERS SQUIBB COMPANY, priority 2013, dated 2017).
# Where two headings read alike, the source gives them in different places.
# Assays:
# [1] = target: human full-length glucocorticoid receptor (Homo sapiens (Human), UniProt P04150); test: Glucocorticoid Receptor Binding Assay (II), fluorescence polarization competitor kit
# Procedure: In order to measure the binding of compounds on the glucocorticoid receptor a commercially available kit was used (Glucocorticoid receptor competitor assay kit, PanVera Co., Madison, Wis., P2816). Briefly, a cell lysate containing recombinantly expressed human full-length glucocorticoid receptor was mixed with a fluorescently labeled glucocorticoid (1 nM Fluormone GS1) in the presence or absence of test compound. After one hour at room temperature, the fluorescence polarization (FP) of the samples were measured.
# [2] = test system: AP-1 induced transcriptional activity; test: Cellular transrepressional assay (AP-1 luciferase reporter, PMA-activated A549 cell); type: cell-based; details: for EC50: read-out: AP-1 (EC50, nM) (measured in cellular transrepression assay)
# Procedure: To measure the ability of test molecules to inhibit AP-1 induced transcriptional activity we utilized an A549 cell which was stably transfected with a plasmid containing 7×AP-1 DNA binding sites (pAP-1-Luc plasmid, Stratagene Co., La Jolla, Calif.) followed by the gene for luciferase. Cells were activated with 10 ng/ml of phorbol myristic acid (PMA) plus or minus test molecules for 7 hours. After 7 hours a luciferase reagent was added to measure luciferase enzymatic activity in the cell. After a 10 minute incubation of luciferase reagent with cells, luminescence was measured in a TOPCOUNT® luminescence counter. Repression of AP-1 activity was calculated as the percentage decrease in the signal induced by PMA alone. Test molecules were analyzed in the concentration range from 0.1 nM to 40 μM. EC50s were determined by using standard curve fitting methods such as Excel fit (Microsoft Co.). An EC50 is the test molecule concentration at which there is a 50% repression of the maximal inhibition of transcription, i.e., a 50% reduction of AP-1 activity.
# [3] = read-out: GR (Ki, nM) (measured in GR binding Assay II)
# [4] = A549 cell, 10 ng/ml PMA, 7 hours
# [5] = Homo sapiens, A549 cell, 10 ng/ml PMA, 7 hours
# human full-length glucocorticoid receptor, sequence (P04150 whole entry): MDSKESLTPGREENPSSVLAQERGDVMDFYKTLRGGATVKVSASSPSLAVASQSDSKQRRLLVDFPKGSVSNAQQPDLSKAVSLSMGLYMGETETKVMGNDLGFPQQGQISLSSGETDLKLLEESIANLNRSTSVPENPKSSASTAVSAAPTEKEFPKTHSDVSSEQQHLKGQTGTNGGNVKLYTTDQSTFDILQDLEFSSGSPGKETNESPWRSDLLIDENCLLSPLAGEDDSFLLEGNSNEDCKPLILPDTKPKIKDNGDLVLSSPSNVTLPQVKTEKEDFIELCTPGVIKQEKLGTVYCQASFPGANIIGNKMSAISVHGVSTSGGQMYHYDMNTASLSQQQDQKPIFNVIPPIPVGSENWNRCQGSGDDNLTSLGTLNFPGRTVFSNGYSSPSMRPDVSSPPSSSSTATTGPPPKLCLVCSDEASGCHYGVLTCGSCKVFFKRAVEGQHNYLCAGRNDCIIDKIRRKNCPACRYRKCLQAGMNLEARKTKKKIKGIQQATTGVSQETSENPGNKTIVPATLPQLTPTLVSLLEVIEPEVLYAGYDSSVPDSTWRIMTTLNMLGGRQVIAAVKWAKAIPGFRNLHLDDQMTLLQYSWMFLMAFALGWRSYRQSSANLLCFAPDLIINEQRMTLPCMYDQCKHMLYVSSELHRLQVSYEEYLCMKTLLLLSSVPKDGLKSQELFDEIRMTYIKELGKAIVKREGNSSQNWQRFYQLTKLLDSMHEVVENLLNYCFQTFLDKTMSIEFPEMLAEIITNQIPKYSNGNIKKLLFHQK
compound,measurement,setting,value
CC(C)Oc1ccc(-c2ccc3c(n2)Oc2ccccc2[C@@H]3C(C)(C)C(=O)NC(N)=O)cc1 [Example 36],Ki,[1]; [3],0.8 nM
same,AP-1 Max % inhibition (measured in cellular transrepression assay),[2]; [4],59.83%
same,EC50,[2]; [4],16.2 nM
CCC(C)c1ccc(-c2ccc3c(n2)Oc2ccccc2[C@@H]3C(C)(C)C(=O)NC(N)=O)cc1 (stereo partly drawn) [Example 38],Ki,[1]; [3],1.74 nM
same,AP-1 Max % inhibition (measured in cellular transrepression assay),[2]; [4],56.33%
same,EC50,[2]; [4],14.1 nM
CCS(=O)(=O)c1ccc(-c2ccc3c(n2)Oc2ccccc2[C@@H]3C(C)(C)C(=O)NC(N)=O)cc1 [Example 39],Ki,[1]; [3],0.93 nM
same,AP-1 Max % inhibition (measured in cellular transrepression assay),[2]; [4],58.23%
same,EC50,[2]; [4],13 nM
CC(C)(C(=O)NC(N)=O)[C@H]1c2ccccc2Oc2nc(-c3ccc(C(=O)N4CCCC4)cc3)ccc21 [Example 40],Ki,[1]; [3],1.93 nM
same,AP-1 Max % inhibition (measured in cellular transrepression assay),[2]; [4],68.22%
same,EC50,[2]; [4],8.69 nM
CCCCc1ccc(-c2ccc3c(n2)Oc2c(F)cccc2[C@@H]3C(C)(C)C(=O)NC(N)=O)cc1 [Example 43],Ki,[1]; [3],0.91 nM
same,AP-1 Max % inhibition (measured in cellular transrepression assay),[2]; [4],67.14%
same,EC50,[2]; [4],5.39 nM
CC(C)(C(=O)NC(N)=O)[C@@H]1c2ccc(-c3ccc(-n4cnnn4)cc3)nc2Oc2c(F)cccc21 [Example 45],Ki,[1]; [3],0.82 nM
same,AP-1 Max % inhibition (measured in cellular transrepression assay),[2]; [4],55.41%
same,EC50,[2]; [4],7.77 nM
CC(C)(C(=O)NC(N)=O)[C@@H]1c2ccc(-c3ccc(C(=O)N4CCCC4)nc3)nc2Oc2c(F)cccc21 [Example 46],Ki,[1]; [3],1.97 nM
same,AP-1 Max % inhibition (measured in cellular transrepression assay),[2]; [4],65.90%
same,EC50,[2]; [4],16.5 nM
CC(C)(C(=O)NC(N)=O)[C@H]1c2ccccc2Oc2nc(-c3ccc(C(=O)N4CCC(F)(F)C4)c(F)c3)ccc21 [Example 49],Ki,[1]; [3],1.09 nM
same,AP-1 Max % inhibition (measured in cellular transrepression assay),[2]; [4],67.00%
same,EC50,[2]; [4],13.3 nM
CC(C)(C(=O)NC(N)=O)[C@H]1c2ccccc2Oc2nc(-c3ccc(C(=O)N4CCC(F)(F)C4)cc3)ccc21 [Example 50],Ki,[1]; [3],1.76 nM
same,AP-1 Max % inhibition (measured in cellular transrepression assay),[2]; [4],69.26%
same,EC50,[2]; [4],15.3 nM
CC(C)(C(=O)NC(N)=O)[C@H]1c2ccccc2Oc2nc(-c3ccc(C(=O)N4CCCC4)c(F)c3)ccc21 [Example 51],Ki,[1]; [3],1.34 nM
same,AP-1 Max % inhibition (measured in cellular transrepression assay),[2]; [4],65.20%
same,EC50,[2]; [4],13.2 nM
CC(C)(C(=O)NC(N)=O)[C@H]1c2ccccc2Oc2nc(-c3ccc(C(=O)N4CCCC4)c(Cl)c3)ccc21 [Example 52],Ki,[1]; [3],123 nM
same,AP-1 Max % inhibition (measured in cellular transrepression assay),[2]; [4],57.02%
same,EC50,[2]; [4],815 nM
CC(C)(C(=O)NC(N)=O)[C@H]1c2ccccc2Oc2nc(-c3ccc(C(=O)N4CCC(F)(F)C4)c(Cl)c3)ccc21 [Example 53],Ki,[1]; [3],369 nM
same,AP-1 Max % inhibition (measured in cellular transrepression assay),[2]; [4],28.67%
same,EC50,[2]; [4],2500 nM
CC(C)(C(=O)NC(N)=O)[C@H]1c2ccccc2Oc2nc(-c3ccc(C(=O)N4CCCC4)nc3)ccc21 [Example 54],Ki,[1]; [3],7.65 nM
same,AP-1 Max % inhibition (measured in cellular transrepression assay),[2]; [4],55.36%
same,EC50,[2]; [4],67.2 nM
CC(C)Oc1ccc(-c2ccc3c(n2)Oc2ccccc2[C@@H]3C(C)(C)C(=O)NC(N)=O)cn1 [Example 57],Ki,[1]; [3],4.23 nM
same,AP-1 Max % inhibition (measured in cellular transrepression assay),[2]; [4],73.98%
same,EC50,[2]; [4],128 nM
CN(C)c1ccc(-c2ccc3c(n2)Oc2ccccc2[C@@H]3C(C)(C)C(=O)NC(N)=O)cn1 [Example 58],Ki,[1]; [3],24.9 nM
same,AP-1 Max % inhibition (measured in cellular transrepression assay),[2]; [4],45.16%
same,EC50,[2]; [4],72.6 nM
CC(C)Nc1ccc(-c2ccc3c(n2)Oc2c(F)cccc2[C@@H]3C(C)(C)C(=O)NC(N)=O)cn1 [Example 60],Ki,[1]; [3],1.13 nM
same,AP-1 Max % inhibition (measured in cellular transrepression assay),[2],66.44%
same,EC50,[2],2.9 nM
CC(=O)Nc1ccc(-c2ccc3c(n2)Oc2c(F)cccc2[C@@H]3C(C)(C)C(=O)NC(N)=O)cn1 [Example 61],Ki,[1]; [3],4.26 nM
same,AP-1 Max % inhibition (measured in cellular transrepression assay),[2]; [4],39.15%
same,EC50,[2]; [4],31.1 nM
CC(C)(C(=O)NC(N)=O)[C@@H]1c2ccc(-c3ccc(NC4CC4)nc3)nc2Oc2c(F)cccc21 [Example 62],Ki,[1]; [3],1.15 nM
same,AP-1 Max % inhibition (measured in cellular transrepression assay),[2]; [4],64.75%
same,EC50,[2]; [4],8.24 nM
CC(C)(C(=O)NC(N)=O)[C@@H]1c2ccc(-c3ccc(C(=O)O)nc3)nc2Oc2c(F)cccc21 [Example 63],Ki,[1]; [3],10.8 nM
same,AP-1 Max % inhibition (measured in cellular transrepression assay),[2]; [4],39.61%
same,EC50,[2]; [4],142 nM
CC(C)(C(=O)NC(N)=O)[C@@H]1c2ccc(-c3ccc(N4CCCCC4)nc3)nc2Oc2c(F)cccc21 [Example 64],Ki,[1]; [3],1.7 nM
same,AP-1 Max % inhibition (measured in cellular transrepression assay),[2],44.43%
same,EC50,[2],72.5 nM
CC(C)Oc1ccc(-c2ccc3c(n2)Oc2ccccc2[C@@H]3C(C)(C)C(=O)NC(N)=O)cn1 [Example 65],Ki,[1]; [3],0.5 nM
same,AP-1 Max % inhibition (measured in cellular transrepression assay),[2]; [4],54.73%
same,EC50,[2]; [4],4.89 nM
CC(=O)Nc1ccc(-c2ccc3c(n2)Oc2ccccc2[C@@H]3C(C)(C)C(=O)NC(N)=O)cn1 [Example 66],Ki,[1]; [3],2.66 nM
same,AP-1 Max % inhibition (measured in cellular transrepression assay),[2]; [4],36.83%
same,EC50,[2]; [4],39.7 nM
Cc1nnn(-c2ccc(-c3ccc4c(n3)Oc3ccccc3[C@@H]4C(C)(C)C(=O)NC(N)=O)cc2)n1 [Example 67],Ki,[1]; [3],1.51 nM
same,AP-1 Max % inhibition (measured in cellular transrepression assay),[2]; [4],53.28%
same,EC50,[2]; [4],4.98 nM
CC(C)Oc1ccc(-c2ccc3c(n2)Oc2c(F)cccc2[C@@H]3C(C)(C)C(=O)NC(N)=O)cn1 [Example 68],Ki,[1],0.63 nM
same,AP-1 Max % inhibition (measured in cellular transrepression assay),[2]; [4],61.39%
same,EC50,[2]; [5],8.57 nM
CC(C)(O)c1ccc(-c2ccc3c(n2)Oc2ccccc2[C@@H]3C(C)(C)C(=O)NC(N)=O)cc1 [Example 70],Ki,[1]; [3],1.19 nM
same,AP-1 Max % inhibition (measured in cellular transrepression assay),[2]; [4],79.50%
same,EC50,[2]; [5],8.94 nM
CN1CCN(c2ncc(-c3ccc4c(n3)Oc3c(F)cccc3[C@@H]4C(C)(C)C(=O)NC(N)=O)cn2)CC1 [Example 71],Ki,[1]; [3],25.9 nM
same,AP-1 Max % inhibition (measured in cellular transrepression assay),[2]; [4],39.16%
same,EC50,[2]; [5],93.6 nM
CC(C)(C(=O)NC(N)=O)[C@H]1c2ccccc2Oc2nc(-c3ccncc3)ccc21 [Example 72],Ki,[1]; [3],4.71 nM
same,AP-1 Max % inhibition (measured in cellular transrepression assay),[2]; [4],37.36%
same,EC50,[2]; [5],36 nM
CC(C)(C(=O)NC(N)=O)[C@@H]1c2ccc(-c3ccncc3)nc2Oc2c(F)cccc21 [Example 73],Ki,[1]; [3],1.72 nM
same,AP-1 Max % inhibition (measured in cellular transrepression assay),[2]; [4],55.78%
same,EC50,[2]; [5],20.1 nM
CC(C)(C(=O)NC(N)=O)C1c2ccccc2Oc2ccccc21 [Example 75],Ki,[1]; [3],32 nM
same,AP-1 Max % inhibition (measured in cellular transrepression assay),[2]; [4],10.32%
same,EC50,[2]; [5],5000 nM
CC(C)(C(=O)NC(N)=O)[C@H]1c2ccccc2Oc2nc(-c3cc[n+]([O-])cc3)ccc21 [Example 76],Ki,[1]; [3],119 nM
same,AP-1 Max % inhibition (measured in cellular transrepression assay),[2]; [4],23.09%
same,EC50,[2]; [4],327 nM
CC(C)(C(=O)NC(N)=O)[C@@H]1c2ccc(-c3ccc(C(=O)N4CCCCC4)cc3)nc2Oc2c(F)cccc21 [Example 83],Ki,[1]; [3],1.11 nM
same,AP-1 Max % inhibition (measured in cellular transrepression assay),[2]; [4],86.42%
same,EC50,[2]; [5],5.89 nM
CC(C)(C(=O)NC(N)=O)[C@@H]1c2ccc(-c3ccc(C(=O)N4CC[C@@H](F)C4)cc3)nc2Oc2c(F)cccc21 [Example 85],Ki,[1]; [3],1.2 nM
same,AP-1 Max % inhibition (measured in cellular transrepression assay),[2]; [4],76.00%
same,EC50,[2]; [5],0.8 nM
